Measurements reported in patent US20230227838A1, “ENHANCED CELL SURVIVAL AGAINST BIOTIC AND ABIOTIC STRESSES THROUGH SALICYLICK ACID-INDUCED NPR1 CONDENSATES” (priority 2020, published 2023).

Molecular target: T1, endogenous NPR1 (Arabidopsis thaliana, UniProt P93002)
T1 construct: from tissue; host or cells: leaf tissue of three-week-old Arabidopsis Col-0 plants
T1 sequence (P93002 1-593): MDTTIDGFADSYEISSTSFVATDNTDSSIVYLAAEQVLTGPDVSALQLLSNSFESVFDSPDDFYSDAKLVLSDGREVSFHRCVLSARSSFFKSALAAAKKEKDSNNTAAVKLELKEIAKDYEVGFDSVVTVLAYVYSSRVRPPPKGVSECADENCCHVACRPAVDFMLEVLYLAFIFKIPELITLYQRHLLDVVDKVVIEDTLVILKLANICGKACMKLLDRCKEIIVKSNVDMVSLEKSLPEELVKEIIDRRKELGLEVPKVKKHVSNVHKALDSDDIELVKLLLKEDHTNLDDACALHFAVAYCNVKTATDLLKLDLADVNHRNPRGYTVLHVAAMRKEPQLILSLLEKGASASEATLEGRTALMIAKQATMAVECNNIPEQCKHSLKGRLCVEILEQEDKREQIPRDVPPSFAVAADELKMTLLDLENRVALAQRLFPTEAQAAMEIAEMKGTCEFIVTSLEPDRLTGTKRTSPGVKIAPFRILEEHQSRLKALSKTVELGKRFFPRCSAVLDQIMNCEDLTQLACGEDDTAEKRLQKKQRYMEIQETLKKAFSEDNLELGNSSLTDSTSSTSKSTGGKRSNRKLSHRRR
Test: Cell fractionation of endogenous NPR1 (cytoplasmic/nuclear)
Type: in vivo
Details: 6 hr, Col-0
Procedure: Cell fractionation. Cytoplasmic and nuclear proteins were sequentially isolated from three-week-old Arabidopsis (Col-0) plants using 1 g of leaf tissue and a sucrose gradient protocol described previously with modifications. Tissue was homogenized in lysis buffer (20 mM Tris-HCl, pH 7.5, 20 mM KCl, 2 mM EDTA, 2.5 mM MgCl2, 25% glycerol, 0.25 M Sucrose) supplemented with 100 μM MG132, EDTA-free protease inhibitor cocktail, 1 mM PMSF and 5 mM DTT. The lysate was filtered through a 70 μm filter and centrifuged at 20,000 g for 15 min at 4° C., and the supernatant was collected (cytoplasmic fraction). The pellet was washed four times with 5 ml of NRBT buffer (20 mM Tris-HCl, pH 7.4, 25% glycerol, 2.5 mM MgCl2, and 0.2% Triton X-100). After the last wash, the pellet was resuspended with 500 μl of NRB2 buffer (20 mM Tris-HCl, pH 7.5, 0.25 M Sucrose, 10 mM MgCl2, 0.5% Triton X-100) supplemented with protease inhibitor cocktail and 5 mM BME. The obtained suspension was layered at 1:1 on top of the NRB3 buffer (20 mM Tris-HCl, pH 7.5, 1.7 M Sucrose, 10 mM MgCl2, 0.5% Triton X-100) supplemented with protease inhibitor cocktail and 5 mM BME, centrifuged at 16,000 g for 45 min at 4° C. The top layer was removed and the pellet was resuspended with 200 μl of plant extraction buffer containing 1% Triton X-100, protease inhibitor cocktail and 5 mM BME (nuclear fraction). […]

Structure (SMILES): O=C(O)c1ccccc1O [SA, salicylic acid]
- subcellular accumulation of endogenous NPR1 (1 mM SA): more NPR1 accumulated in the cytoplasm
- subcellular accumulation of endogenous NPR1 (0.1 and 0.5 mM SA): increased nuclear accumulation
